Data: PubChem BioAssay (NCI)
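The compound was tested at five concentrations on cells cultured in 96-well plates, with a 48-hour exposure period. Here, GI50 denotes the concentration required for 50% inhibition of growth. TGI: concentration producing complete growth inhibition.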

Legend:
Experiment in all cases: NCI anticancer screen, dose series, 48 h
A498 renal = system: A498 renal
ACHN renal = system: ACHN renal
CCRF-CEM leukemia = system: CCRF-CEM leukemia
DU-145 prostate = system: DU-145 prostate
HCC-2998 colon = system: HCC-2998 colon
HCT-15 colon = system: HCT-15 colon
HOP-92 NSCLC = system: HOP-92 NSCLC
K-562 leukemia = system: K-562 leukemia
MCF7 breast = system: MCF7 breast
MDA-MB-231 breast = system: MDA-MB-231 breast
MDA-MB-435 = system: MDA-MB-435
MOLT-4 leukemia = system: MOLT-4 leukemia
NCI-H226 lung = system: NCI-H226 lung
NCI-H23 lung = system: NCI-H23 lung
NCI-H522 lung = system: NCI-H522 lung
NCI/ADR-RES ovarian = system: NCI/ADR-RES ovarian
OVCAR-8 ovarian = system: OVCAR-8 ovarian
PC-3 prostate = system: PC-3 prostate
RXF 393 renal = system: RXF 393 renal
SK-MEL-2 melanoma = system: SK-MEL-2 melanoma
SK-MEL-5 melanoma = system: SK-MEL-5 melanoma
SK-OV-3 ovarian = system: SK-OV-3 ovarian
SNB-19 CNS = system: SNB-19 CNS
SW-620 colon = system: SW-620 colon
T-47D breast = system: T-47D breast
TK-10 renal = system: TK-10 renal
UACC-62 melanoma = system: UACC-62 melanoma
786-0 renal = system: 786-0 renal
A549 NSCLC = system: A549 NSCLC
BT-549 breast = system: BT-549 breast
CAKI-1 renal = system: CAKI-1 renal
HCT-116 colon = system: HCT-116 colon
HL-60(TB) leukemia = system: HL-60(TB) leukemia
HOP-62 NSCLC = system: HOP-62 NSCLC
HS 578T breast = system: HS 578T breast
HT29 colon = system: HT29 colon
IGROV1 ovarian = system: IGROV1 ovarian
KM12 colon = system: KM12 colon
LOX IMVI melanoma = system: LOX IMVI melanoma
M14 melanoma = system: M14 melanoma
MALME-3M melanoma = system: MALME-3M melanoma
NCI-H460 lung = system: NCI-H460 lung
OVCAR-3 ovarian = system: OVCAR-3 ovarian
OVCAR-4 ovarian = system: OVCAR-4 ovarian
RPMI-8226 leukemia = system: RPMI-8226 leukemia
SF-268 CNS = system: SF-268 CNS
SF-295 CNS = system: SF-295 CNS
SF-539 CNS = system: SF-539 CNS
SK-MEL-28 melanoma = system: SK-MEL-28 melanoma
SN12C renal = system: SN12C renal
SNB-75 CNS = system: SNB-75 CNS
SR leukemia = system: SR leukemia
U251 CNS = system: U251 CNS
UO-31 renal = system: UO-31 renal

## O=C1c2c(c3c4ccc(Br)cc4oc3c3[nH]c4ccccc4c23)C(=O)N1O
A498 renal
  GI50: 0.585 µM
  TGI: 4.41 µM
ACHN renal
  GI50: 1.11 µM
  TGI: > 100 µM
CCRF-CEM leukemia
  GI50: 0.0418 µM
  TGI: > 100 µM
DU-145 prostate
  GI50: 3.23 µM
  TGI: > 100 µM
HCC-2998 colon
  GI50: 1.94 µM
  TGI: > 100 µM
HCT-15 colon
  GI50: 2.13 µM
  TGI: > 100 µM
HOP-92 NSCLC
  GI50: 1.74 µM
  TGI: 4.45 µM
K-562 leukemia
  GI50: 2.07 µM
  TGI: > 100 µM
MCF7 breast
  GI50: 1.12 µM
  TGI: > 100 µM
MDA-MB-231 breast
  GI50: 2.48 µM
  TGI: > 100 µM
MDA-MB-435
  GI50: 3.11 µM
  TGI: > 100 µM
MOLT-4 leukemia
  GI50: 0.308 µM
  TGI: > 100 µM
NCI-H226 lung
  GI50: 2.34 µM
  TGI: > 100 µM
NCI-H23 lung
  GI50: 1.75 µM
  TGI: 6.39 µM
NCI-H522 lung
  GI50: 1.07 µM
  TGI: > 100 µM
NCI/ADR-RES ovarian
  GI50: 2.64 µM
  TGI: > 100 µM
OVCAR-8 ovarian
  GI50: 1.45 µM
  TGI: > 100 µM
PC-3 prostate
  GI50: 1.3 µM
  TGI: > 100 µM
RXF 393 renal
  GI50: 2.1 µM
  TGI: 6.34 µM
SK-MEL-2 melanoma
  GI50: 2.34 µM
  TGI: 7.23 µM
SK-MEL-5 melanoma
  GI50: 1.48 µM
  TGI: 3.27 µM
SK-OV-3 ovarian
  GI50: 2.84 µM
  TGI: > 100 µM
SNB-19 CNS
  GI50: 2.14 µM
  TGI: > 100 µM
SW-620 colon
  GI50: 1.38 µM
  TGI: > 100 µM
T-47D breast
  GI50: 1.92 µM
  TGI: > 100 µM
TK-10 renal
  GI50: 4.67 µM
  TGI: > 100 µM
UACC-62 melanoma
  GI50: 1.52 µM
  TGI: 3.94 µM

## Cc1sc(C)c(-c2ccc(CO)o2)c1-c1ccc(CO)o1
786-0 renal
  TGI: > 100 µM
A498 renal
  GI50: 0.0205 µM
  TGI: 0.0973 µM
A549 NSCLC
  GI50: 2.88 µM
  TGI: > 100 µM
ACHN renal
  GI50: 64.2 µM
  TGI: > 100 µM
BT-549 breast
  GI50: > 71.7 µM
  TGI: > 100 µM
CAKI-1 renal
  GI50: 1.16 µM
  TGI: > 100 µM
CCRF-CEM leukemia
  GI50: 49.1 µM
  TGI: > 100 µM
DU-145 prostate
  GI50: > 100 µM
  TGI: > 100 µM
HCC-2998 colon
  GI50: > 83.9 µM
  TGI: > 100 µM
HCT-116 colon
  GI50: 0.0695 µM
  TGI: > 100 µM
HCT-15 colon
  GI50: > 76.6 µM
  TGI: > 100 µM
HL-60(TB) leukemia
  GI50: 52.5 µM
  TGI: > 100 µM
HOP-62 NSCLC
  GI50: 0.372 µM
  TGI: > 100 µM
HOP-92 NSCLC
  GI50: 7.01 µM
  TGI: > 100 µM
HS 578T breast
  GI50: 43 µM
  TGI: > 100 µM
HT29 colon
  GI50: 0.498 µM
  TGI: > 100 µM
IGROV1 ovarian
  GI50: 0.077 µM
  TGI: 0.472 µM
K-562 leukemia
  GI50: 0.622 µM
  TGI: > 100 µM
KM12 colon
  GI50: > 83.5 µM
  TGI: > 100 µM
LOX IMVI melanoma
  GI50: 94.3 µM
  TGI: > 100 µM
M14 melanoma
  GI50: 70.9 µM
  TGI: > 100 µM
MALME-3M melanoma
  GI50: > 100 µM
  TGI: > 100 µM
MCF7 breast
  GI50: 0.0787 µM
  TGI: > 100 µM
MDA-MB-231 breast
  GI50: 51 µM
  TGI: > 100 µM
MDA-MB-435
  GI50: > 100 µM
  TGI: > 100 µM
MOLT-4 leukemia
  GI50: 48.9 µM
  TGI: > 100 µM
NCI-H226 lung
  GI50: 0.124 µM
  TGI: 0.388 µM
NCI-H23 lung
  GI50: > 100 µM
  TGI: > 100 µM
NCI-H460 lung
  GI50: 0.124 µM
  TGI: > 100 µM
NCI-H522 lung
  GI50: 41.9 µM
  TGI: > 100 µM
NCI/ADR-RES ovarian
  GI50: > 84.4 µM
  TGI: > 100 µM
OVCAR-3 ovarian
  GI50: 0.183 µM
  TGI: 0.706 µM
OVCAR-4 ovarian
  GI50: 0.299 µM
  TGI: > 100 µM
OVCAR-8 ovarian
  GI50: 75.4 µM
  TGI: > 100 µM
PC-3 prostate
  GI50: 32.7 µM
  TGI: > 100 µM
RPMI-8226 leukemia
  GI50: 13.5 µM
  TGI: > 100 µM
RXF 393 renal
  GI50: 0.316 µM
  TGI: > 100 µM
SF-268 CNS
  GI50: 91.1 µM
  TGI: > 100 µM
SF-295 CNS
  GI50: 0.276 µM
  TGI: > 100 µM
SF-539 CNS
  GI50: > 100 µM
  TGI: > 100 µM
SK-MEL-2 melanoma
  GI50: 5.03 µM
  TGI: > 100 µM
SK-MEL-28 melanoma
  GI50: > 100 µM
  TGI: > 100 µM
SK-MEL-5 melanoma
  GI50: > 61.5 µM
  TGI: > 100 µM
SK-OV-3 ovarian
  GI50: 16.5 µM
  TGI: > 100 µM
SN12C renal
  GI50: 96.6 µM
  TGI: > 100 µM
SNB-19 CNS
  GI50: > 100 µM
  TGI: > 100 µM
SNB-75 CNS
  GI50: 25.4 µM
  TGI: > 100 µM
SR leukemia
  GI50: > 77.9 µM
  TGI: > 100 µM
SW-620 colon
  GI50: 0.499 µM
  TGI: > 100 µM
TK-10 renal
  GI50: 0.116 µM
  TGI: 0.426 µM
U251 CNS
  GI50: 14.5 µM
  TGI: > 100 µM
UO-31 renal
  GI50: 28.8 µM
  TGI: > 100 µM
